Experimental data taken from patent US11814367B2, “Inhibitors of glycogen synthase 1 (GYS1) and methods of use thereof” (Maze Therapeutics, Inc., priority 2021, dated 2023).

Experiments:
[1] = molecular target: hGYS1 enzyme (recombinant hGYS1/GN1 protein) (Homo sapiens (Human), UniProt P13807); experiment: GYS1 coupled enzyme assay (PK/LDH); type: biochemical; details: hGYS1/GN1 50 nM, UDP-Glucose 0.8 mM, G6P 1 mM; geometric mean of at least 2 runs
[2] = system: hGYS1 enzyme / glycogen synthesis in HeLa cells; experiment: GYS1 cell based assay (glycogen synthesis, Glucose-glo); parameters: species or system human; details: Homo sapiens, HeLa, 24 h, 24 h incubation, 20 mM glucose, geometric mean of at least 2 runs
Excerpt: The GYS1 cell based assay is a bioluminescent assay that quantifies the glucose resulting from glycogen digestion; the quantified glucose is an indirect measure of GYS1 glycogen synthesis. Newly synthesized glycogen is digested using Glucoamylase; the resulting glucose is quantified by using the Glucose-glo assay kit from Promega. Glucose-glo works by coupling glucose oxidation and NADH production with a bioluminescent system that is activated with NADH. Glucose is oxidized by Glucose dehydrogenase and the reaction reduces NAD+ to NADH; NADH activates Reductase which reduces a pro-luciferin Reductase Substrate to luciferin. Luciferin is detected in a luciferase reaction using Ultra-Glo rLuciferase and ATP, and the luminesce produced is proportional to the glucose in the sample. The luminescence is measured as a single point read in a plate reader.
Compounds that inhibit the hGYS1 enzyme and, subsequently, the glycogen synthesis in cells, were tested using assay ready plates (white, clear bottom 384 well plates) in a final DMSO reaction volume of 1% DMSO. Compounds in the assay ready plates were mixed with media with no additives, except for 20 mM glucose prior to cell addition. HeLa cells were starved in media with no additives, except for 1× Glutamax for 24 h. Starved HeLa cells were plated, in a 1:1 ratio to the media in the assay ready plate and incubated for 24 h at 37° C. and 5% C02. Cells were washed in 1×PBS buffer and lysed in lysis buffer containing 50% 1×PBS and 25% 0.3 N HCl of the final volume in the well or reaction volume; cells were incubated with lysis buffer for 10 minutes and quenched with the remaining 25% of the reaction volume that consisted of 450 mM Tris pH 8.0. Lysates were mixed in a 1:1 ratio with Glucoamylase in 100 mM Sodium Acetate buffer, pH 5.3; the mixture was incubated for 1 h at 37° C. The digested lysate was mixed in a 1:1 ratio with Glucose-glo detection mixture as per vendor recommendations (Luciferase detection buffer, Reductase, Reductase substrate, Glucose dehydrogenase, and NAD) in read-out plates (solid white 384-well plates) and incubated for 1 h at RT. The plates were read using a plate reader with luminescence capabilities. Each compound concentration Relative Luminescence Unit (RLU) was averaged and normalized to the average RLU of the positive and negative controls to obtain a percentage inhibition. The normalized data vs. concentration was plotted; to determine the half-maximal concentration (IC50), the Levenberg-Marquardt algorithm was used to fit a Hill equation to the dose response data.
The results are shown in Table 3 below, which reports the IC50 of each compound. Unless otherwise specified, IC50 values are reported as the geometric mean of at least 2 assay runs on separate days. As shown in the table below, the compounds of the present invention are potent inhibitors of human GYS1. Unless otherwise specified, IC50 values are reported as the geometric mean of at least two assay runs on separate days. Each run represents the average of a technical replicate, where each compound was assayed twice in the same plate. A superscript “#” symbol in Table 3 indicates results from a single assay run.

Sequence of hGYS1 enzyme (recombinant hGYS1/GN1 protein) (P13807 whole entry): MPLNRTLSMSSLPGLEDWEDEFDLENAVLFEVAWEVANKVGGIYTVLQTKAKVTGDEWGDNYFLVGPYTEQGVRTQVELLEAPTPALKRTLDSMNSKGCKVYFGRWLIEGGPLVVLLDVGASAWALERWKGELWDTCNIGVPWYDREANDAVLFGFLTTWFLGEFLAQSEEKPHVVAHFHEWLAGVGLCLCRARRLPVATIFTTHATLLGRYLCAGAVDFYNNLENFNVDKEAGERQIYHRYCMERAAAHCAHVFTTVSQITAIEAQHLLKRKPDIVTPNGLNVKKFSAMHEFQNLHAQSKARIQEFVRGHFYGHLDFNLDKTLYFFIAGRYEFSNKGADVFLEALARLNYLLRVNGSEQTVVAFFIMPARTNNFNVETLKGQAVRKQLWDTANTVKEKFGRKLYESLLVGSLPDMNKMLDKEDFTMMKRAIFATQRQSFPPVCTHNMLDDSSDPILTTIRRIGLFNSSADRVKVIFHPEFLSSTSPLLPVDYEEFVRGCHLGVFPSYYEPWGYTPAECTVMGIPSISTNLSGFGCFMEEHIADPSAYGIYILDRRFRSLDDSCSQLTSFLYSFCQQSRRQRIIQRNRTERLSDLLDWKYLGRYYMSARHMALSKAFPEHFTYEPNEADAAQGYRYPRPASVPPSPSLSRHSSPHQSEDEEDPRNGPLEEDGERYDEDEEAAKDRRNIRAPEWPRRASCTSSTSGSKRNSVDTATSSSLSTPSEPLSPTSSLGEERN
Sequence of hGYS1 enzyme (recombinant hGYS1/GN1 protein) (P46976 whole entry partner): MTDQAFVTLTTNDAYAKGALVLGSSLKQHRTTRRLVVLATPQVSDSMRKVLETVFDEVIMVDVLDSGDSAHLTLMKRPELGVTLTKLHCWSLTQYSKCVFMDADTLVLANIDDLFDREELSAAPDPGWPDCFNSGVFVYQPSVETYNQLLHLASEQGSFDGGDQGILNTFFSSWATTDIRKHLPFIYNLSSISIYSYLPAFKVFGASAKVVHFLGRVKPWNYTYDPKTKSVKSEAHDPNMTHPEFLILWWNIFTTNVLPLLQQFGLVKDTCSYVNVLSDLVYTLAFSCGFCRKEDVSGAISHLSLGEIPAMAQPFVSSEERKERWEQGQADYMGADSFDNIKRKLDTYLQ

| SMILES | IC50 [1] [nM] | IC50 [2] [nM] |
| --- | --- | --- |
| CC(C)c1ccc([C@@H](NC(=O)[C@@H]2C[C@@H](F)CN2C(=O)Cc2nn(C)c(=O)[nH]2)c2ccccc2)nc1F [Compound 397, (2S,4R)-4-fluoro-N-[(S)-[6-fluoro-5-(propan-2-yl)pyridin-2-yl](phenyl)methyl]-1-[2-(1-methyl-5-oxo-4,5-dihydro-1H-1,2,4-triazol-3-yl)acetyl] pyrrolidine-2-carboxamide] | 9 | 400 |
| O=C(NC(c1ccc(F)cc1)c1ccc(C2CC2)c(F)n1)[C@@H]1C[C@@H](F)CN1C(=O)Cn1nnnc1C(F)F (single isomer, unassigned) [Compound 658, (2S,4R)-N-[(S) or (R)-(5-cyclopropyl-6-fluoropyridin-2-yl)(4-fluorophenyl)methyl]-1-{2-[5-(difluoromethyl)-1H-1,2,3,4-tetrazol-1-yl]acetyl}-4-fluoropyrrolidine-2-carboxamide] | 99 | 1660 |
| O=C(N[C@@H](c1ccccc1)c1ccc(C2CC2)c(F)n1)[C@@H]1C[C@@H](F)CN1C(=O)Cc1cnn[nH]1 [Compound 721, (2S,4R)-N-[(S)-(5-cyclopropyl-6-fluoropyridin-2-yl)(phenyl)methyl]-4-fluoro-1-[2-(1H-1,2,3-triazol-5-yl)acetyl]pyrrolidine-2-carboxamide] | 79 | 1090 |
| CN(C)c1cnn(CC(=O)N2C[C@H](F)C[C@H]2C(=O)N[C@H](c2ccccc2)c2ccc(C3CC3)c(F)n2)n1 [Compound 717, (2S,4R)-N-[(R)-(5-cyclopropyl-6-fluoropyridin-2-yl)(phenyl)methyl]-1-{2-[4-(dimethylamino)-2H-1,2,3-triazol-2-yl]acetyl}-4-fluoropyrrolidine-2-carboxamide] | 1480 | > 25800 |
| CC(=O)N1C[C@H](F)C[C@H]1C(=O)NC(c1cccc(-c2cc(C)n[nH]2)c1)c1ccc(C(C)C)c(F)n1 (single isomer, unassigned) [Compound 696, (2S,4R)-1-acetyl-4-fluoro-N-[(S) or (R)-[6-fluoro-5-(propan-2-yl)pyridin-2-yl][3-(3-methyl-1H-pyrazol-5-yl)phenyl]methyl] pyrrolidine-2-carboxamide] | 103 | 2710 |
| CC(C)c1ccc([C@H](NC(=O)[C@@H]2C[C@@H](F)CN2C(=O)Cc2cnn[nH]2)c2cccc(-c3ccn[nH]3)c2)nc1F [Compound 687, (2S,4R)-1-(2-(1H-1,2,3-triazol-5-yl)acetyl)-N—((R)-(3-(1H-pyrazol-5-yl)phenyl)(6-fluoro-5-isopropylpyridin-2-yl)methyl)-4-fluoropyrrolidine-2-carboxamide] | 3820 | > 30000 |
| CC(=O)N1C[C@@H]2C[C@@H]2[C@H]1C(=O)N[C@@H](c1ccccc1)c1ccc(C(C)C)cc1 [Compound 201, (1S,2S,5R)-3-acetyl-N-[(S)-phenyl[4-(propan-2-yl)phenyl]methyl]-3-azabicycl[3.1.0]hexane-2-carboxamide] | 461 | 3700 |
| CC(C)c1ccc([C@@H](NC(=O)[C@@H]2C[C@@H](F)CN2C(=O)Cc2c[nH]c(=O)cn2)c2ccccc2)nc1F [Compound 802, (2S,4R)-4-fluoro-N-[(S)-[6-fluoro-5-(propan-2-yl)pyridin-2-yl](phenyl)methyl]-1-[2-(5-oxo-4,5-dihydropyrazin-2-yl)acetyl]pyrrolidine-2-carboxamide] | 9 | 370 |
| CNC(=O)NCc1cccc([C@H](NC(=O)[C@@H]2C[C@@H](F)CN2C(=O)Cc2cnn[nH]2)c2ccc(C(C)C)c(F)n2)c1 [Compound 656, (2S,4R)-4-fluoro-N-[(S)-[6-fluoro-5-(propan-2-yl)pyridin-2-yl](3-{[(methylcarbamoyl)amino]methyl}phenyl)methyl]-1-[2-(1H-1,2,3-triazol-5-yl)acetyl]pyrrolidine-2-carboxamide] | 1300 | 10800 |
| O=C(N[C@@H](c1ccccc1)c1ccc(C2CC2)c(F)n1)[C@@H]1C[C@@H](F)CN1C(=O)Cc1[nH]nnc1C(F)F [Compound 756, (2S,4R)-N-[(S)-(5-cyclopropyl-6-fluoropyridin-2-yl)(phenyl)methyl]-1-{2-[4-(difluoromethyl)-1H-1,2,3-triazol-5-yl]acetyl}-4-fluoropyrrolidine-2-carboxamide] | 23 | 1700 |
| CC(C)c1ccc(C(NC(=O)[C@@H]2C[C@@H](F)CN2C(=O)Cc2cnn[nH]2)c2ccccc2)cc1C(F)(F)F (single isomer, unassigned) [Compound 683, (2S,4R)-4-fluoro-N-[(S) or (R)-phenyl[4-(propan-2-yl)-3-(trifluoromethyl)phenyl]methyl]-1-[2-(1H-1,2,3-triazol-5-yl)acetyl]pyrrolidine-2-carboxamide] | 2360 | > 30000 |
| CC(C)(C)OC(=O)n1c(CC(=O)N2C[C@H](F)C[C@H]2C(=O)N[C@@H](c2ccccc2)c2ccc(C3(C)CC3)c(F)n2)cc2ccccc21 [Compound 601, tert-butyl 2-{2-[(2S,4R)-4-fluoro-2-{[(S)-[6-fluoro-5-(1-methylcyclopropyl)pyridin-2-yl](phenyl)methyl]carbamoyl}pyrrolidin-1-yl]-2-oxoethyl}-1H-indole-1-carboxylate] | 34 | 710 |
| Cc1cc(C(NC(=O)[C@@H]2C[C@@H](F)CN2C(=O)Cc2cnn[nH]2)c2cccnc2N)ccc1C(C)C (single isomer, unassigned) [Compound 624, (2S,4R)-N-[(R) or (S)-(2-aminopyridin-3-yl)[3-methyl-4-(propan-2-yl)phenyl]methyl]-4-fluoro-1-[2-(1H-1,2,3-triazol-5-yl)acetyl]pyrrolidine-2-carboxamide] | 408 | 5790 |
| O=C(N[C@@H](c1ccccc1)c1ccc(C2CC2)c(F)n1)[C@@H]1C[C@@H](F)CN1C(=O)Cc1cccn2c(=O)[nH]nc12 [Compound 297, (2S,4R)-N-[(S)-(5-cyclopropyl-6-fluoropyridin-2-yl)(phenyl)methyl]-4-fluoro-1-(2-{3-oxo-2H,3H-[1,2,4]triazolo[4,3-a]pyridin-8-yl}acetyl)pyrrolidine-2-carboxamide] | 15 | 700 |
| O=C(N[C@@H](c1ccccc1)c1ccc(C2CC(F)(F)C2)c(F)c1)[C@@H]1C[C@@H](F)CN1C(=O)Cc1nc(C(F)(F)F)co1 [Compound 555, (2S,4R)-N-[(S)-[4-(3,3-difluorocyclobutyl)-3-fluorophenyl](phenyl)methyl]-4-fluoro-1-{2-[4-(trifluoromethyl)-1,3-oxazol-2-yl]acetyl}pyrrolidine-2-carboxamide] | 97 | 660 |
| Cc1cc(C(F)F)nn1CC(=O)N1C[C@H](F)C[C@H]1C(=O)N[C@@H](c1ccccc1)c1ccc(C(C)C)c(F)n1 [Compound 804, (2S,4R)-1-{2-[3-(difluoromethyl)-5-methyl-1H-pyrazol-1-yl]acetyl}-4-fluoro-N-[(S)-[6-fluoro-5-(propan-2-yl)pyridin-2-yl](phenyl)methyl] pyrrolidine-2-carboxamide] | 17 | 140 |
| Cc1cc(C(F)F)n(CC(=O)N2C[C@H](F)C[C@H]2C(=O)N[C@@H](c2ccccc2)c2ccc(C(C)C)c(F)n2)n1 [Compound 803, (2S,4R)-1-{2-[5-(difluoromethyl)-3-methyl-1H-pyrazol-1-yl]acetyl}-4-fluoro-N-[(S)-[6-fluoro-5-(propan-2-yl)pyridin-2-yl](phenyl)methyl] pyrrolidine-2-carboxamide] | 4 | 80 |
| O=C(N[C@@H](c1ccccc1)c1ccc(C2CC(F)(F)C2)c(F)n1)[C@@H]1C[C@@H](F)CN1C(=O)Cc1nc(C(F)(F)F)co1 [Compound 528, (2S,4R)-N-[(S)-[5-(3,3-difluorocyclobutyl)-6-fluoropyridin-2-yl](phenyl)methyl]-4-fluoro-1-{2-[4-(trifluoromethyl)-1,3-oxazol-2-yl]acetyl}pyrrolidine-2-carboxamide] | 15 | 330 |
